What is called Solubility is the concentration that dissolves in the medium under given conditions. A higher Solubility goes with a readily soluble substance.

This is an account of results in patent US5037578A, “O,O'-bridged oligophenylene laser dyes and dyestuff lasers and method of lasing therewith” (Exciton Chemical Company, priority 1990, dated 1991).

Data set [1] in a line: Solubilities of o,o'-bridged oligophenylenes in laser solvents at 21° C. Particulars: for Solubility: 21° C.; for Solubility compared with 2,2'-bifluorene: in solvents (Table I). The class given is physicochemical. The source says:
It is further discovered that when substituent X of the bridged biphenyl moiety is a carbon atom which is free of benzylic hydrogens, the laser dye is relatively less reactive and relatively more soluble. In other words, it has been realized that the absence of benzylic hydrogens from the bridged carbon substituent, that is, the carbon substituent that is bonded directly to the phenyl moieties to form the bridge, renders the organic laser dyes of the present invention less reactive and more soluble. In view of the present disadvantages concerning the solubility of organic laser dyes available hitherto, this is quite significant.

Data set [2] in a line: Fluorescence emission spectrum and Fluorescence Quantum Efficiency. The data set is classed as physicochemical. Particulars: for Fluorescence emission intensity, first peak / Fluorescence emission intensity, second peak / Fluorescence emission peak, first / Fluorescence emission peak, second: slits 2 nm. The source says: The fluorescence emission spectrum for the dye 9,9-dipropylfluorene as illustrated in FIG. 1 was detected on a Perkin-Elmer MPF-44A, the slits were set at 2 nm and the excitation light was at 265 nm. The Fluorescence Quantum Efficiency (FQE) was about the same as that of fluorene - 55%; and the fluorescence emission peaks at 306 nm(intensity 86) and […](intensity 67) were also similar to those of fluorene [the fluorescence emission spectrum for fluorene as illustrated in FIG. 5 was also detected on a Perkin-Elmer MPF-44A, the slits were set at 2 nm and the excitation light was at 265 nm and the fluorescence emission peaks for fluorene are at 303 nm(intensity 93) and 311 nm(intensity 73)].
This dye had two fluorescence peaks of almost equal intensity at 360 nm(intensity 33) and 378 nm(intensity 28) as illustrated in FIG. 2. […] The fluorescence emission spectrum of the dye 9,9,9',9'-tetrapropyl-2,2'-bifluorene was detected on a Perkin-Elmer MPF-44A, the slits were set at 2 nm and the excitation light was at 331 nm.
This dye had fluorescence peaks at 324 nm(intensity 90) and 338 nm(intensity 76) and a reported fluorescence quantum yield of 100% in cyclohexane as illustrated in FIG. 3. […] The fluorescence emission spectrum for the dye 3-phenyldibenzofuran as illustrated in FIG. 3 was detected on a Perkin-Elmer MPF-44A, the slits were set at 2 nm and the excitation light was at 301 nm.
The dye, 3,3'-bi(dibenzofuran), was prepared in accordance with the process disclosed in H.O. Wirth, G. Waese and W. Kern: Synthese Und Eigenschaften Von: Oxydo-p-oligophenylenen. Makromol. Chem. 86: 139(1965) which is incorporated herein in its entirety by reference, and was purified by extraction from Brockmann Activity I alumina with chloroform in an Ace-Kauffman column to give a white solid, mp 249.5°-250.5° C. (lit.mp 252.5° C.). This dye had two fluorescence peaks of almost equal intensity at 353 nm(intensity 47) and 369 nm(intensity 30) in cyclohexane as illustrated in FIG. 4.

For data set [3] the following is noted: cyclohexane; reported; cited from earlier work.

Structures are written as SMILES. Converted amounts (≈) assume the structure as drawn. “And” between values parts separate entries of the source, which are not always exact repeats. Equal values may be shown once.

Regarding `c1ccc2c(c1)oc1cc(-c3ccc4c(c3)oc3ccccc34)ccc12` [3,3'-bi(dibenzofuran)], the Solubility in data set [1] (95% ethanol) is 1.0 × 10^-2 M and 2.5 g/l; in data set [1] (100% ethanol) it was 6.3 × 10^-5 M and 0.021 g/l; in data set [1] (DMF), 2.5 × 10^-3 M and 0.84 g/l; in data set [1] (Methanol) it was 2.1 × 10^-5 M and 0.007 g/l; in data set [1] (Toluene), 2.4 × 10^-3 M and 0.8 g/l; in data set [1] (cyclohexane), 9.0 × 10^-5 M and 0.030 g/l. Also, the Solubility in data set [1] (dioxane) is 1.3 × 10^-3 M and 0.43 g/l. In data set [1], the “Solubility compared with 2,2'-bifluorene” value was “greater than that of 2,2'-bifluorene”. In addition, in data set [2], the “Fluorescence emission spectrum compared with dye of Example 2” value was “almost superimposable on that of the dye discussed in Example 2”. In addition, the “Fluorescence emission intensity, first peak” value in data set [2] (excitation 323 nm, cyclohexane) was determined as 47. In addition, the “Fluorescence emission intensity, second peak” value in data set [2] (excitation 323 nm, cyclohexane) was 30. The “Fluorescence emission peak, first” value in data set [2] (excitation 323 nm, cyclohexane) is given as 353 nm. Besides, in data set [2] (excitation 323 nm, cyclohexane), the “Fluorescence emission peak, second” value stood at 369 nm.
With `CCCC1(CCC)c2ccccc2-c2ccccc21` [9,9-dipropylfluorene], in data set [2], the “Fluorescence Quantum Efficiency (FQE)” value is on record as around 55%. Besides, in data set [2] (excitation 265 nm), the “Fluorescence emission intensity, first peak” value came out at 86; the “Fluorescence emission intensity, second peak” value was found to be 67; the “Fluorescence emission peak, first” value is recorded as 306 nm.
As to `c1ccc2c(c1)Cc1ccccc1-2` [fluorene, reference compound], in data set [2], the “Fluorescence Quantum Efficiency (FQE)” value is reported as 55%. In data set [2] (excitation 265 nm), the “Fluorescence emission intensity, first peak” value amounted to 93; the “Fluorescence emission intensity, second peak” value came to 73; the “Fluorescence emission peak, first” value was determined as 303 nm; the “Fluorescence emission peak, second” value was found to be 311 nm.
Consider `CCn1c2ccccc2c2ccc(-c3ccc4c5ccccc5n(CC)c4c3)cc21` [9,9'-diethyl-2,2'-bicarbazole], for which, in data set [2] (in alcohols), the “Violet fluorescence compared with compounds of Examples 2 and 4” value is “brighter violet fluorescence in alcohols than the compounds of Examples 2 and 4”.
Take `c1ccc(-c2ccc(-c3ccc(-c4ccccc4)cc3)cc2)cc1` [quaterphenyl, reference compound]: the Solubility in data set [1] (Toluene) is ~1.3 × 10^-3 M and ~0.4 g/l.
For `c1ccc2c(c1)Cc1cc(-c3ccc4c(c3)Cc3ccccc3-4)ccc1-2` [2,2'-bifluorene], the Solubility in data set [1] (1,2-dichloroethane) was 1.0 × 10^-3 M and 0.33 g/l; in data set [1] (95% ethanol) it was 0.4 g/L (≈ 1210 µM); in data set [1] (100% ethanol), 2.3 × 10^-5 M and 0.0077 g/l; in data set [1] (Toluene), 1.3 × 10^-3 M and 0.4 g/l; in data set [1] (cyclohexane), 3.0 × 10^-5 M and 0.01 g/l.
Take `CCCC1(CCC)c2ccccc2-c2ccc(-c3ccc4c(c3)C(CCC)(CCC)c3ccccc3-4)cc21` [9,9,9',9'-tetrapropyl-2,2'-bifluorene]: the Solubility in data set [1] (100% ethanol) is 7.8 × 10^-4 M and 0.39 g/l. The Solubility in data set [1] (Methanol) is 3.4 × 10^-4 M and 0.17 g/l. Besides, the Solubility in data set [1] (cyclohexane) was 2.0 × 10^-2 M and 10 g/l. Besides, the Solubility in data set [1] (dioxane) is 6.5 × 10^-3 M and 3.2 g/l. Further, in data set [1], the “Solubility compared with 2,2'-bifluorene” value is “more soluble than 2,2'-bifluorene”. Further, in data set [2] (excitation 331 nm), the “Fluorescence emission intensity, first peak” value worked out at 33; the “Fluorescence emission intensity, second peak” value came to 28; the “Fluorescence emission peak, first” value is listed as 360 nm; the “Fluorescence emission peak, second” value is given as 378 nm.
As for `c1ccc(-c2ccc3c(c2)oc2ccccc23)cc1` [3-phenyldibenzofuran], the Fluorescence quantum yield in data set [3] is listed as 100%. The Solubility in data set [1] (50% ethanol) is 8.4 × 10^-3 M and 2.0 g/l; in data set [1] (95% ethanol), 1.1 × 10^-2 M and 2.7 g/l; in data set [1] (100% ethanol), 1.6 × 10^-2 M and 3.9 g/l; in data set [1] (Methanol) it was 1.2 × 10^-2 M and 2.9 g/l; in data set [1] (cyclohexane) it was > 2.44 g/l and > 1.0 × 10^-2 M. Also, the “Solubility compared with p-terphenyl” value is “much greater than that of p-terphenyl” in data set [1] (in all cases (See Table I)); “much more soluble” in data set [1] (methanol, 50% ethanol, 95% ethanol and absolute ethanol). In data set [2] (excitation 301 nm, cyclohexane), the “Fluorescence emission intensity, first peak” value worked out at 90. Moreover, in data set [2] (excitation 301 nm, cyclohexane), the “Fluorescence emission intensity, second peak” value is 76. Moreover, the “Fluorescence emission peak, first” value in data set [2] (excitation 301 nm, cyclohexane) was found to be 324 nm. The “Fluorescence emission peak, second” value in data set [2] (excitation 301 nm, cyclohexane) is reported as 338 nm. Also, the “FQE in methanol compared with cyclohexane” value in data set [2] (methanol) was “the same in methanol as in cyclohexane”.
